The values that follow come from patent US8962853B2, “Chemical probe compounds that become fluorescent upon reduction, and methods for their use” (Life Technologies Corporation, priority 2005, dated 2015).

Some results are limits rather than exact numbers.

Assay [1] concerns E. coli. Kind of assay: Electron transport system (ETS) inhibition assay. It counts as cell-based, Escherichia coli. As to conditions: for fluorescence signal of stain, E. coli: no ETS inhibitor (Untreated). As for the experimental part:
(§1) S. aureus and E. coli were treated with known inhibitors of the electron transport system (ETS) to determine if reductase moieties in the ETS would reduce exemplary stain compounds. […] The bacteria were diluted in PBS buffer and treated with the various ETS inhibitors, stained with 500 nM stain compound (18) for 10 minutes, and then analyzed by flow cytometry using a Becton Dickinson FACSCalibur™ instrument (Becton, Dickinson and Company; Franklin Lakes, N.J.) containing a 488 nm argon ion laser.
(§2) Stain compound (19) was assayed according to the procedure outlined in Example 23.
(§3) Stain compound (22) was assayed according to the procedure outlined in Example 23.
(§4) Stain compound (24) was assayed according to the procedure outlined in Example 23.

For assay [2], the system named is S. aureus. The assay is described as follows: Electron transport system (ETS) inhibition assay. As to conditions: for fluorescence signal of stain, S. aureus: no ETS inhibitor (Untreated). The assay is classed as cell-based, Staphylococcus aureus. As for the experimental part: as §1, §2, §3, §4
For assay [3], the system named is K. pneumoniae. Kind of assay: Staining of bacteria, flow cytometry. The following applies: 500 nM, 10 minutes. The assay is classed as cell-based, Klebsiella pneumoniae. The protocol:
(§5) Gram-positive and Gram-negative bacteria were labeled using compound (18). S. aureus and B. subtilis were used as examples of Gram-positive bacteria, and E. coli and K. pneumoniae were used as examples of Gram-negative bacteria. Cells were diluted in buffer to about 10^6 cells/mL. The bacteria were contacted with compound 18 (500 nM) for 10 minutes in Hank's Balanced Salt Solution (HBSS) or various other buffers such as PBS. The samples were analyzed by flow cytometry using a Becton Dickinson FACScan™ instrument (Becton, Dickinson and Company; Franklin Lakes, N.J.) containing a 488 nm argon ion laser. Cells were analyzed directly without washing, or optionally, were fixed with 1-4% formaldehyde prior to flow cytometric analysis.
A general note: A flow cytometer gives signals particle by particle.

The subject of assay [4] is B. subtilis. The assay is described as follows: Stability of fluorescence. As to conditions: monitored for one hour. It counts as cell-based, Bacillus subtilis. The protocol: (§6) Compound (18) was contacted with cultures of S. aureus, B. subtilis, E. coli, and K. pneumoniae. The fluorescence of the samples were monitored for one hour. The signal developed very quickly for S. aureus and B. subtilis, and stabilized within 10 minutes. The signal was stable for at least one hour (FIG. 6).

Assay [5] deals with S. aureus. Kind of assay: Fixation assays (compatibility with fixed samples). The assay is classed as cell-based, Staphylococcus aureus. The following applies: 100 nM, 10 minutes, HBSS. The protocol:
A culture of S. aureus was grown to log-phase, and washed and diluted in HBSS to 10^6 cells per mL. Samples of 1 mL each were aliquotted to six flow cytometry tubes. CCCP was added to three of the samples at a final concentration of 10 μM. The samples were incubated for 1-5 minutes. Compound (18) was added at a final concentration of 100 nM, and the samples were allowed to sit for 10 minutes. The +/− CCCP tubes were divided into two sets: one set received 1 mL of 100% ethanol, and the other set received 100 µL of 10% formaldehyde (methanol-free). The samples were analyzed using a Becton Dickinson FACSCalibur as described in Example 23.

Assay [6] has as its system E. coli. Kind of assay: Titration series on cultured bacteria. As to conditions: titration 500 nM to 4 uM; Gram-negative organisms tested. The assay is classed as cell-based, Escherichia coli. As for the experimental part:
(§7) The x-axis represents the concentration of compound (18) in nM, while the y-axis represents FL1 GeoMean fluorescence.
(§8) A titration series was performed on cultured bacteria. Chemical compound (18) was used at concentrations ranging from 10 nM to 1 uM for S. aureus and B. subtilis (FIG. 2), and 500 nM to 4 uM for E. coli and K. pneumoniae (FIG. 3).

Assay [7] concerns S. aureus. Kind of assay: Titration series on cultured bacteria. As to conditions: titration 10 nM to 1 uM. It counts as cell-based, Staphylococcus aureus. The protocol: as §7, §8
Assay [8] concerns K. pneumoniae. The assay is described as follows: Titration series on cultured bacteria. The following applies: titration 500 nM to 4 uM; Gram-negative organisms tested. It counts as cell-based, Klebsiella pneumoniae. The protocol: as §7, §8
Assay [9] has as its system B. subtilis. The assay is described as follows: Staining of bacteria, flow cytometry. The assay is classed as cell-based, Bacillus subtilis. The following applies: 500 nM, 10 minutes. The protocol: as §5
Assay [10] deals with E. coli. The assay is described as follows: Staining of bacteria, flow cytometry. It counts as cell-based, Escherichia coli. The following applies: 500 nM, 10 minutes. As for the experimental part: as §5
The subject of assay [11] is S. aureus. Kind of assay: Staining of bacteria, flow cytometry. It counts as cell-based, Staphylococcus aureus. The following applies: 500 nM, 10 minutes. As for the experimental part:
as §5

In assay [12] the test system is B. subtilis. The assay is described as follows: Titration series on cultured bacteria. The following applies: titration 10 nM to 1 uM. The assay is classed as cell-based, Bacillus subtilis. The protocol: as §7, §8
The test system of assay [13] is S. aureus. The assay is described as follows: Time course treatments (growth and stain fluorescence). The following applies: compound present in broth culture medium. It counts as cell-based, Staphylococcus aureus. The protocol: Control samples that were untreated were also prepared.
Samples were taken once every hour for six hours and stained with 500 nM compound (18) for 10 minutes, then analyzed by flow cytometry using a Becton Dickinson FACSCalibur™ instrument (Becton, Dickinson and Company; Franklin Lakes, N.J.) containing a 488 nm argon ion laser. Not only did the treated cells not proliferate, but the signal from the stain in treated samples decreased once the cells entered ‘log-growth’ phase as compared to the untreated control.

Assay [14] concerns S. aureus. The assay is described as follows: Stability of fluorescence. The assay is classed as cell-based, Staphylococcus aureus. As to conditions: monitored for one hour. As for the experimental part: as §6
[15] abbreviates: buffer Sodium chloride + 10 mM glucose.
Setting [16] is: stain compound (18) 500 nM, 10 minutes, PBS.
Setting [17] is: stained with compound (18) 500 nM, rotenone 1 mM, antimycin A 20 uM, azide 10 mM, CCCP 10 uM.

On to `CC1=C(C)C(=O)C(N(C)CCCN(C)C2=C/C(=C\c3sc4ccccc4[n+]3C)c3ccccc3N2c2ccccc2)=C(C)C1=O` [Compound 24], for which, in the assay on E. coli [1] (stain compound (24)), the “fluorescence signal of stain, E. coli” value is given as 114.71. Moreover, the “fluorescence signal of stain, S. aureus” value in the assay on S. aureus [2] (stain compound (24)) is 853.47.

As for `CC1=C(C)C(=O)C(N2CCC(NC(=O)CCCN(C)C3=C/C(=C\c4sc5ccccc5[n+]4C)c4ccccc4N3c3ccccc3)CC2)=C(C)C1=O` [Compound 18], the “FL1 GeoMean fluorescence” value is on record as 19.9 in the assay on K. pneumoniae [3] (buffer HBSS); 48.67 with K. pneumoniae [3] (buffer PBS + 1 mM EDTA); 29 in the assay with K. pneumoniae [3] (buffer PBS + 0.01% Tween-20); 78.1 with K. pneumoniae [3] (buffer PBS + 0.1% Pluronic); 17.91 in the assay on K. pneumoniae [3] (buffer PBS); 9.7 in the assay on K. pneumoniae [3] (setting [15]). For the same compound, the “FL1 GeoMean fluorescence” value with K. pneumoniae [3] (buffer Sodium chloride) was determined as 9.16; with B. subtilis [9] (buffer HBSS), 902.22; in the assay on B. subtilis [9] (buffer PBS + 1 mM EDTA), 57.75; in the assay with B. subtilis [9] (buffer PBS + 0.01% Tween-20), 844.66; with B. subtilis [9] (buffer PBS + 0.1% Pluronic), 470.35; in the assay with B. subtilis [9] (buffer PBS) it was 902.15. For the same compound, the “FL1 GeoMean fluorescence” value turned out to be 943.79 with B. subtilis [9] (setting [15]); 951.93 with B. subtilis [9] (buffer Sodium chloride); 42.1 with E. coli [10] (buffer HBSS); 70.92 with E. coli [10] (buffer PBS + 1 mM EDTA); 44.48 in the assay on E. coli [10] (buffer PBS + 0.01% Tween-20); 136.43 with E. coli [10] (buffer PBS + 0.1% Pluronic). The “FL1 GeoMean fluorescence” value with E. coli [10] (buffer PBS) worked out at 30.25; with E. coli [10] (setting [15]) it was 11.52; in the assay on E. coli [10] (buffer Sodium chloride), 12.43; with S. aureus [11] (buffer HBSS), 2168.52; in the assay with S. aureus [11] (buffer PBS + 1 mM EDTA), 1583.19; in the assay with S. aureus [11] (buffer PBS + 0.01% Tween-20), 2909.97. For the same compound, the “FL1 GeoMean fluorescence” value with S. aureus [11] (buffer PBS + 0.1% Pluronic) amounted to 1685.21; in the assay on S. aureus [11] (buffer PBS), 1976.41; in the assay with S. aureus [11] (setting [15]), 2183.44; with S. aureus [11] (buffer Sodium chloride), 2171.61. Moreover, the “time for fluorescence signal to stabilize” value with B. subtilis [4] and in the assay on S. aureus [14] was ≤ 10 min throughout. In addition, the “time the fluorescence signal was stable” value in the assay with B. subtilis [4] and in the assay on S. aureus [14] was “at least one” each time. In addition, the Fluorescence in the assay on S. aureus [5] (CCCP No, Fixation agent Ethanol) is 135; in the assay on S. aureus [5] (CCCP No, Fixation agent Formaldehyde), 936; with S. aureus [5] (CCCP No, Fixation agent None), 1720; in the assay with S. aureus [5] (CCCP Yes (10 μM), Fixation agent Ethanol), 53; in the assay on S. aureus [5] (CCCP Yes (10 μM), Fixation agent Formaldehyde), 274; in the assay on S. aureus [5] (CCCP Yes (10 μM), Fixation agent None) it was 110. In addition, the “preferred concentration for staining” value with E. coli [6] and with K. pneumoniae [8] was “about 1 uM” throughout. Besides, the “concentration found to work well for staining” value with S. aureus [7] is 50 to 100 nM. The “fluorescence signal of stain, E. coli” value in the assay on E. coli [1] (setting [16]) amounted to 85.33. Also, in the assay with B. subtilis [12], the “optimal concentration for staining” value is on record as “about 500 nM”. Also, the “fluorescence signal of stain, S. aureus” value with S. aureus [2] (setting [16]) is listed as 351.91. In the assay with S. aureus [13], the “proliferation of S. aureus” value is listed as “prevented proliferation”.

With `C=C(C)[C@H]1Cc2c(ccc3c2O[C@@H]2COc4cc(OC)c(OC)cc4[C@@H]2C3=O)O1` [Rotenone, rotenone], the “fluorescence signal after inhibitor treatment, E. coli” value in the assay with E. coli [1] (setting [17]) is on record as 24.05; in the assay with E. coli [1] (stained with compound (19)), 20.56; in the assay with E. coli [1] (stained with compound (22)) it was 38.81; in the assay on E. coli [1] (stained with compound (24)), 44.66. The “fluorescence signal after inhibitor treatment, S. aureus” value is reported as 32.75 in the assay with S. aureus [2] (setting [17]), 8.19 with S. aureus [2] (stained with compound (19)), 11.74 in the assay with S. aureus [2] (stained with compound (22)) and 17.17 with S. aureus [2] (stained with compound (24)).

For the compound `CC1=C(NCCCN(C)C2=C/C(=C\c3sc4ccccc4[n+]3C)c3ccccc3N2c2ccccc2)C(=O)c2ccccc2C1=O` [Compound 22], the “fluorescence signal of stain, E. coli” value in the assay with E. coli [1] (stain compound (22)) is given as 90.91. For the same compound, the “fluorescence signal of stain, S. aureus” value with S. aureus [2] (stain compound (22)) is listed as 594.12.

On to `CC1=C(C)C(=O)C(N2CCN(C(=O)CCCN(C)C3=C/C(=C\c4sc5ccccc5[n+]4C)C=CN3c3ccccc3)CC2)=C(C)C1=O` [Compound 19], for which the “fluorescence signal of stain, E. coli” value in the assay on E. coli [1] (stain compound (19)) was 59.78. In addition, the “fluorescence signal of stain, S. aureus” value in the assay on S. aureus [2] (stain compound (19)) came to 248.1.

For the compound antimycin A, the “fluorescence signal after inhibitor treatment, E. coli” value in the assay on E. coli [1] (setting [17]) was 34.65; in the assay on E. coli [1] (stained with compound (19)) it was 12.4; in the assay on E. coli [1] (stained with compound (22)), 20.17; with E. coli [1] (stained with compound (24)), 26.28. In addition, the “fluorescence signal after inhibitor treatment, S. aureus” value was determined as 59.41 with S. aureus [2] (setting [17]), 4.1 with S. aureus [2] (stained with compound (19)), 6.16 in the assay with S. aureus [2] (stained with compound (22)) and 6.56 in the assay on S. aureus [2] (stained with compound (24)).

On to `N#CC(C#N)=NNc1cccc(Cl)c1` [CCCP, carbonyl cyanide m-chlorophenylhydrazone], for which the “fluorescence signal after inhibitor treatment, E. coli” value was 150.7 in the assay on E. coli [1] (setting [17]), 12.59 with E. coli [1] (stained with compound (19)), 63.26 in the assay with E. coli [1] (stained with compound (22)) and 152.7 in the assay on E. coli [1] (stained with compound (24)). Moreover, the “fluorescence signal after inhibitor treatment, S. aureus” value amounted to 4.19 with S. aureus [2] (setting [17]), 46.73 in the assay on S. aureus [2] (stained with compound (19)), 240.61 in the assay with S. aureus [2] (stained with compound (22)) and 402.19 in the assay with S. aureus [2] (stained with compound (24)).
